For test [1], the system named is Cryptococcus neoformans. Nature of the test: Antifungal activity against Cryptococcus neoformans H99. It counts as functional.
The test system of test [2] is Candida tropicalis. Put plainly: Antifungal activity against Candida tropicalis 3890 assessed as reduction in fungal growth. It counts as functional.
In test [3] the test system is Candida tropicalis. Put plainly: Antifungal activity against Candida tropicalis 5008 assessed as reduction in fungal growth. It counts as functional.
Test [4] deals with Candida albicans. Nature of the test: Antifungal activity against fluconazole-resistant Candida albicans 904 assessed as reduction in fungal growth by NCCLS method. It counts as functional.
The target in test [5] is T1, Sterol 24-C-methyltransferase (Candida albicans (strain SC5314 / ATCC MYA-2876) (Yeast), UniProt O74198).
T1 sequence (O74198 whole entry): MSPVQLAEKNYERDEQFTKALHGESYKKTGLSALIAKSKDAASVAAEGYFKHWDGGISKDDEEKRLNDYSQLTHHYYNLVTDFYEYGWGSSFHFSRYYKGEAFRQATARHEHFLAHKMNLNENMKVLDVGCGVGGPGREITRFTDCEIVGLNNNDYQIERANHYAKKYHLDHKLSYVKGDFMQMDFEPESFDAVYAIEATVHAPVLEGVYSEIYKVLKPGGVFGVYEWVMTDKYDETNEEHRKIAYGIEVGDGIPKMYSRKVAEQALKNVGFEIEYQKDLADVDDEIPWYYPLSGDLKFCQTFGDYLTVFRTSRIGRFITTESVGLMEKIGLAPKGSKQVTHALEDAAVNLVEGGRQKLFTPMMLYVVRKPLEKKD
Put plainly: Inhibition of N-terminal His-tagged Candida albicans SC5314 Erg6 extracted from Escherichia coli BL21 (DE3) methyltransferase activity using zymosterol as substrate pre-incubated for 15 mins followed by substrate addition by liquid scintillation counter analysis.

In test [6] the test system is Candida albicans. Put plainly: Antifungal activity against fluconazole-resistant Candida albicans 901 assessed as inhibition of fungal growth. The format is functional.
The test system of test [7] is Cryptococcus neoformans. Put plainly: Antifungal activity against Cryptococcus neoformans H99 assessed as fungal growth inhibition measured after 48 hrs by resazurin assay. It counts as functional.
Test [8] deals with T1, Sterol 24-C-methyltransferase. Put plainly: Inhibition of Candida albicans SC5314 Erg6.

In brackets after ≈: the same amount, converted by molar mass.

A word on the MIC80: it is an inhibitory concentration at the 80% level, which refers to growth in some studies and to a panel of isolates in others. As usually defined, the IC50 is the concentration needed to halve the response being measured. Low values mean greater potency, high ones weaker potency. One may read the MIC50 as an inhibitory concentration at the 50% level, which refers to growth in some studies and to a panel of isolates in others.

Regarding `O=C(CCCCCCCOc1ccc(CN2CCN(CC(O)(Cn3cncn3)c3ccc(F)cc3F)CC2)cc1)NO` (centres undefined), the MIC80 in the test on Cryptococcus neoformans [1], with Candida tropicalis [2] and with Candida tropicalis [3] was 0.5 µg/mL (≈ 0.852 µM) in each case.
As for `COc1cc2c(cc1-c1c(C)noc1C)[nH]c1ncnc(NCCCCCCC(=O)NO)c12`, the MIC80 in the test with Candida albicans [4] was 0.5 µg/mL (≈ 1.1 µM); in the test with Cryptococcus neoformans [1], 8 µg/mL (≈ 17.7 µM).
`Cc1c(-n2c(-c3ccc(Br)cc3)cs/c2=N\c2ccccc2)c(=O)n(-c2ccccc2)n1C` yielded an IC50 in test [5] of 0.58 µM.
For `Clc1ccc(N/N=C(\c2ccccc2)c2ccccn2)nc1`, the MIC50 in the test on Candida albicans [6] and with Cryptococcus neoformans [7] was 0.5 µg/mL (≈ 1.62 µM) each time.
With `C=C(CC[C@@H](CO)[C@H]1CC[C@@]2(C)C3=C(CC[C@]12C)[C@@]1(C)CC[C@@H](OC(=O)C[C@@](C)(O)CC(=O)O)C(C)(C)[C@@H]1CC3)[C@H](C)C(=O)O`, the IC50 in test [8] came out at 11.6 µM. This counts as double-digit micromolar.

(Values after ChEMBL document CHEMBL6103669, “Is a Fungal Apocalypse Inevitable or Just a Hallucination? An Overview of the Antifungal Armamentarium Used in the Fight against Pathogenic Fungi” (ACS Med Chem Lett, 2025).)
